Converted amounts (≈) assume the structure as drawn. The source made the active and inactive calls. The rule behind the calls is not given here.
Experiments:
[1] = target: T1, Human immunodeficiency virus type 1 integrase (Human immunodeficiency virus 1, UniProt Q7ZJM1); experiment: Inhibition of recombinant HIV1 integrase bound with donor DNA-SPA beads using [3H] target DNA as substrate assessed as strand transfer activity preincubated for 60 mins followed by substrate addition measured after 25 to 45 mins
[2] = target: Human immunodeficiency virus type 1 reverse transcriptase (Human immunodeficiency virus 1) (UniProt Q72547); experiment: Inhibition of HIV1 reverse transcriptase DNA polymerase activity up to 10 uM
[3] = target: Human immunodeficiency virus type 1 reverse transcriptase (Human immunodeficiency virus 1, UniProt Q72547); experiment: Inhibition of HIV1 reverse transcriptase RNase-H activity using dATP, dCTP, dTTP, [8-3H(N)]-dGTP, oligo1, oligo 2, oligo 3 as substrate preincubated for 30 mins followed by substrate addition measured after 90 mins
[4] = target: T1, Human immunodeficiency virus type 1 integrase; experiment: Inhibition of HIV1 integrase strand transfer activity
Rattus norvegicus = experiment: Dose normalized AUC in Sprague-Dawley (CD) rat at 1 mg/kg, iv; format: ADME, organism-based; parameters: dose 1 mg/kg, route intravenous; details: in vivo
[5] = system: Human immunodeficiency virus; experiment: microbe, parasite or virus in culture; details: Human immunodeficiency virus 1, HEK-293T, 48 h
Description: Antiviral activity against Vesicular stomatitis virus G-pseudotyped HIV infected in human 293T cells transfected with pGJ3-Luci after 2 days by single round infectivity assay

[6] = target: T1, Human immunodeficiency virus type 1 integrase; experiment: Inhibition of HIV1 integrase bound with donor DNA-SPA beads using 3'-end fluorescein isothiocyanate labeled target DNA as substrate assessed as strand transfer activity incubated prior to substrate addition
[7] = Solubility of the compound by chemiluminescent nitrogen detection method; format: physicochemical
[8] = Clearance in Sprague-Dawley (CD) rat at 1 mg/kg, iv relative to hepatic blood flow; format: ADME, organism-based, Liver; parameters: dose 1 mg/kg, route intravenous; details: in vivo, read-out: CLH
[9] = Half life in Sprague-Dawley (CD) rat at 1 mg/kg, iv and 5 mg/kg, po; format: ADME, organism-based; details: in vivo
[10] = Permeability across MDCK cells; format: ADME, cell-based, Canis lupus familiaris; details: dog, read-out: permeability
[11] = target: T1, Human immunodeficiency virus type 1 integrase; experiment: Inhibition of recombinant HIV1 N-terminal His6-tagged integrase expressed in Escherichia coli using 32P-labeled preprocessed HIV-1 U5 DNA as substrate assessed as strand transfer activity after 2 hrs by densitometric analysis
[12] = Inhibition of HIV1 reverse transcriptase strand transfer activity

T1 sequence (Q7ZJM1 whole entry): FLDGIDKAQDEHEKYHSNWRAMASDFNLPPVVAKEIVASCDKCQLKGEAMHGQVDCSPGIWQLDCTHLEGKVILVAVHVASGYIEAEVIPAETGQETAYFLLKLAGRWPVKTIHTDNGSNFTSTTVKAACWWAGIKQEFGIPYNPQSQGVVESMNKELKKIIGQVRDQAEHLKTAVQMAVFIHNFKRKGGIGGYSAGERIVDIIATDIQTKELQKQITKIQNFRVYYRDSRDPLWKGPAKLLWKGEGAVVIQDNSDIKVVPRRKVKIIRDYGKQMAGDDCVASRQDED

With O=c1nc(N2CCC(F)(F)CC2)c2cccnc2n1O the IC50 [1] was 7.94 µM, the inhibition [2] was “inactive” and the IC50 [3] was 0.501 µM.

Work on O=C1Cc2ccccc2C(=O)N1O yielded an IC50 [4] of over 5000 µM.

In the case of O=c1nc(Nc2ccc(-c3ccncc3)cc2)c2cccnc2n1O, the IC50 [1] is reported as 1.99 µM, the inhibition [2] is reported as “inactive” and the AUC/dose (Rattus norvegicus) is reported as 1942 ng·h/mL/mg. The IC50 [3] was 0.079 µM.

With O=c1nc(NCc2cccc(CN3CCOCC3)c2)c2cccnc2n1O the IC50 [5] was 0.3 µM, the IC50 [1] was 15.9 µM and the inhibition [2] was “inactive”. For the same compound, the IC50 [3] was 0.398 µM.

With O=c1nc(NCc2ccc(-c3ccccc3)cc2)c2cccnc2n1O the IC50 [1] was 0.63 µM, the inhibition [2] was “inactive” and the IC50 [3] was 0.01 µM.

O=c1nc(NCC2CC2)c2cccnc2n1O gave an IC50 [5] of 0.71 µM, an IC50 [1] of 3.9 µM and an IC50 [3] of 0.398 µM.

For O=C(NCc1ccc(F)cc1)c1nc(N2CCCCS2(=O)=O)c2cccnc2c1O, the IC50 [6] was 10 µM.

For O=c1nc(Nc2ccc(N3CCOCC3)cc2)c2cccnc2n1O, the IC50 [5] was 0.25 µM, the IC50 [1] was 0.5 µM and the solubility [7] was 161 µM (≈ 54.6 µg/mL). The clearance [8] was 45 mL/min/kg, the half-life [9] was 2.4 h and the inhibition [2] was “inactive”. For the same compound, the Papp [10] was 0.7 ×10⁻⁶ cm/s, the AUC/dose (Rattus norvegicus) was 314 ng·h/mL/mg and the IC50 [3] was 0.05 µM.

For O=c1nc(Nc2ccc(-c3ccccc3)cc2)c2cccnc2n1O, the IC50 [1] was 0.79 µM, the inhibition [2] was “inactive” and the AUC/dose (Rattus norvegicus) was 2934 ng·h/mL/mg.

Compound O=c1nc(Nc2ccc(CN3CCOCC3)cc2)c2cccnc2n1O has an IC50 [5] of 0.16 µM, an IC50 [1] of 1.3 µM and a solubility [7] of 503 µM (≈ 178 µg/mL). The clearance [8] was 70 mL/min/kg, the half-life [9] was 0.4 h and the inhibition [2] was “inactive”. For the same compound, the Papp [10] was 0.5 ×10⁻⁶ cm/s, the AUC/dose (Rattus norvegicus) was 226 ng·h/mL/mg and the IC50 [3] was 0.2 µM.

Work on O=c1nc(NCc2ccc(N3CCOCC3)cc2)c2cccnc2n1O yielded an IC50 [5] of 0.47 µM, an IC50 [1] of 1.58 µM and a solubility [7] of 293 µM (≈ 104 µg/mL). For the same compound, the clearance [8] was 55 mL/min/kg, the half-life [9] was 4.5 h and the inhibition [2] was “inactive”. It also gave a Papp [10] of 1.4 ×10⁻⁶ cm/s, an AUC/dose (Rattus norvegicus) of 713 ng·h/mL/mg and an IC50 [3] of 0.1 µM.

With O=c1nc(NCc2cccc(N3CCOCC3)c2)c2cccnc2n1O the IC50 [5] was 0.38 µM, the IC50 [1] was 1.99 µM and the inhibition [2] was “inactive”. It also gave an IC50 [3] of 0.2 µM.

In the case of O=c1nc(NCc2ccc(F)cc2)c2cccnc2n1O, the IC50 [1] is reported as 3.16 µM, the inhibition [2] is reported as “inactive” and the IC50 [3] is reported as 0.158 µM.

O=C(NCc1ccc(Cl)cc1)c1ncc2cccnc2c1O showed an IC50 [11] of 20 µM and an IC50 [12] of 0.135 µM.

In the case of O=c1nc(NCc2ccc(-c3ccncc3)cc2)c2cccnc2n1O, the IC50 [1] is reported as 1.26 µM, the inhibition [2] is reported as “inactive” and the AUC/dose (Rattus norvegicus) is reported as 1000 ng·h/mL/mg. For the same compound, the IC50 [3] was 0.016 µM.
